Tests used:
Assay in all cases: relative viability (nuclei count vs DMSO), 5 days (fraction); higher = more cells survive
Palbociclib + Crizotinib = compound: CC(=O)c1c(C)c2cnc(Nc3ccc(N4CCNCC4)cn3)nc2n(C2CCCC2)c1=O [Palbociclib] + C[C@@H](Oc1cc(-c2cnn(C3CCNCC3)c2)cnc1N)c1c(Cl)ccc(F)c1Cl [Crizotinib] (partner 1 µM)
Procedure, shortened: (§1)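 Five library-drug doses in √10 steps were combined with a fixed anchor-drug dose, or a single drug was given alone, by pin tool to lung cancer cell lines in 1536-well plates the day after seeding. Nuclei were stained and counted after 5 days. Relative viability is the nuclei count in treated wells over that in vehicle wells, taken as the median of duplicate plates.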

Palbociclib + Tozasertib = compound: CC(=O)c1c(C)c2cnc(Nc3ccc(N4CCNCC4)cn3)nc2n(C2CCCC2)c1=O [Palbociclib] + Cc1cc(Nc2cc(N3CCN(C)CC3)nc(Sc3ccc(NC(=O)C4CC4)cc3)n2)n[nH]1 [Tozasertib] (partner 0.1 µM)
Procedure, shortened: as §1

Palbociclib + AZD7762 = compound: CC(=O)c1c(C)c2cnc(Nc3ccc(N4CCNCC4)cn3)nc2n(C2CCCC2)c1=O [Palbociclib] + NC(=O)Nc1cc(-c2cccc(F)c2)sc1C(=O)N[C@H]1CCCNC1 [AZD7762] (partner 0.2 µM)
Procedure, shortened: as §1

Palbociclib + Trametinib = compound: CC(=O)c1c(C)c2cnc(Nc3ccc(N4CCNCC4)cn3)nc2n(C2CCCC2)c1=O [Palbociclib] + CC(=O)Nc1cccc(-n2c(=O)n(C3CC3)c(=O)c3c(Nc4ccc(I)cc4F)n(C)c(=O)c(C)c32)c1 [Trametinib] (partner 0.02 µM)
Procedure, shortened: as §1

Row | Cell Line | relative viability (Palbociclib + Crizotinib; first compound 0.01 µM) | relative viability (Palbociclib + Crizotinib; first compound 0.03162 µM) | relative viability (Palbociclib + Crizotinib; first compound 0.1 µM) | relative viability (Palbociclib + Crizotinib; first compound 0.3162 µM) | relative viability (Palbociclib + Crizotinib; first compound 1 µM) | relative viability (Palbociclib + Tozasertib; first compound 0.01 µM) | relative viability (Palbociclib + Tozasertib; first compound 0.1 µM) | relative viability (Palbociclib + Tozasertib; first compound 0.3162 µM) | relative viability (Palbociclib + Tozasertib; first compound 1 µM) | relative viability (Palbociclib + AZD7762; first compound 0.01 µM) | relative viability (Palbociclib + AZD7762; first compound 0.03162 µM) | relative viability (Palbociclib + AZD7762; first compound 0.1 µM) | relative viability (Palbociclib + AZD7762; first compound 0.3162 µM) | relative viability (Palbociclib + AZD7762; first compound 1 µM) | relative viability (Palbociclib + Trametinib; first compound 0.01 µM) | relative viability (Palbociclib + Trametinib; first compound 0.03162 µM) | relative viability (Palbociclib + Trametinib; first compound 0.1 µM) | relative viability (Palbociclib + Trametinib; first compound 0.3162 µM) | relative viability (Palbociclib + Trametinib; first compound 1 µM) | relative viability (Palbociclib + Tozasertib; first compound 0.03162 µM)
1 | PC-14 | 1.01 | 0.84 | 0.799 | 0.739 | 0.594 | 0.589 | 0.523 | 0.55 | 0.4 | 0.453 | 0.349 | 0.277 | 0.289 | 0.16 | 0.742 | 0.528 | 0.512 | 0.466 | 0.273 | –
2 | HCC-78 | 0.375 | 0.328 | 0.266 | 0.27 | 0.269 | 0.451 | 0.319 | 0.354 | 0.334 | 0.731 | 0.623 | 0.67 | 0.525 | 0.685 | 0.869 | 0.62 | 0.524 | 0.531 | 0.374 | 0.383
3 | LC-2-ad | 0.417 | – | 0.421 | 0.44 | 0.328 | 0.461 | 0.453 | 0.428 | 0.439 | 0.886 | 0.692 | 0.734 | 0.702 | 0.513 | 0.966 | 0.884 | 0.889 | 0.804 | 0.666 | –
4 | NCI-H1755 | 0.927 | 0.889 | 0.707 | 0.706 | 0.539 | 0.578 | 0.558 | 0.506 | 0.506 | 0.476 | 0.402 | 0.436 | 0.451 | 0.421 | 0.804 | 0.746 | 0.688 | 0.719 | 0.597 | 0.596
5 | NCI-H358 | 0.453 | 0.479 | 0.335 | 0.332 | 0.187 | 0.0961 | 0.096 | 0.0791 | 0.0679 | 0.535 | 0.417 | 0.347 | 0.29 | 0.213 | 0.124 | 0.133 | 0.106 | 0.12 | 0.106 | 0.087
6 | NCI-H727 | 0.78 | 0.642 | 0.45 | 0.41 | 0.404 | 0.589 | 0.52 | 0.529 | 0.405 | 0.593 | 0.511 | 0.584 | 0.447 | 0.461 | 0.366 | 0.336 | 0.397 | 0.387 | 0.403 | 0.482
7 | A-427 | 0.963 | 0.83 | 0.668 | 0.728 | 0.614 | 0.203 | 0.224 | 0.227 | 0.209 | 0.778 | 0.653 | 0.472 | 0.469 | 0.43 | 0.846 | 0.703 | 0.628 | 0.613 | 0.587 | 0.205
8 | BEN | 0.831 | 0.701 | 0.719 | 0.722 | 0.475 | 0.563 | 0.541 | 0.608 | 0.697 | 0.826 | 0.604 | 0.583 | 0.567 | 0.388 | 1.05 | 0.949 | 0.553 | 0.873 | 0.598 | 0.429
9 | NCI-H596 | 0.98 | 0.905 | 0.986 | 1.05 | 0.973 | 0.951 | 1 | 0.935 | 0.965 | 1.15 | 0.96 | 1.1 | 1.01 | 1.09 | 0.793 | 0.632 | 0.875 | 0.757 | 0.954 | –
10 | NCI-H23 | 0.613 | – | 0.436 | 0.458 | 0.428 | 0.335 | 0.381 | 0.378 | 0.412 | 0.304 | 0.324 | 0.268 | 0.248 | 0.217 | 0.447 | 0.295 | 0.42 | 0.39 | 0.289 | –
11 | EMC-BAC-2 | 0.738 | 0.716 | 0.699 | 0.646 | 0.496 | 0.24 | 0.277 | 0.285 | 0.29 | 1.13 | 0.935 | 0.955 | 1.02 | 0.713 | 0.815 | 0.797 | 0.718 | 0.694 | 0.512 | 0.298
12 | HCC-827 | 0.904 | 0.889 | 0.844 | 0.787 | 0.781 | 0.424 | 0.358 | 0.389 | 0.366 | 0.245 | 0.211 | 0.202 | 0.203 | 0.168 | 0.545 | 0.52 | 0.449 | 0.476 | 0.399 | 0.4
13 | NCI-H647 | 0.947 | 0.809 | 0.759 | 0.735 | 0.462 | 0.272 | 0.266 | 0.465 | 0.435 | 0.645 | 0.3 | 0.368 | 0.326 | 0.197 | 0.502 | 0.305 | 0.428 | 0.346 | 0.272 | 0.286
14 | NCI-H441 | 0.685 | 0.593 | 0.474 | 0.546 | 0.433 | 0.689 | 0.577 | 0.446 | 0.373 | 1.04 | 0.844 | 0.896 | 0.743 | 0.598 | 0.483 | 0.409 | 0.23 | 0.228 | 0.155 | 0.739
15 | EPLC-272H | 0.967 | – | 0.779 | 0.893 | 0.799 | 0.326 | 0.331 | 0.339 | 0.42 | 0.306 | – | 0.383 | 0.251 | 0.274 | 0.286 | – | 0.268 | 0.244 | 0.25 | –
16 | CAL-12T | 0.598 | 0.464 | 0.466 | 0.511 | 0.374 | 0.294 | 0.305 | 0.259 | 0.271 | 0.646 | 0.569 | 0.516 | 0.51 | 0.409 | 0.437 | 0.316 | 0.207 | 0.204 | 0.166 | 0.307
17 | NCI-H650 | 0.619 | – | 0.446 | 0.58 | 0.475 | 0.784 | 0.639 | 0.588 | 0.576 | 0.949 | – | 0.978 | 0.921 | 0.686 | 1.02 | – | 0.771 | 0.915 | 0.792 | 0.378
18 | HARA | 1.04 | 0.945 | 0.836 | 0.766 | 0.499 | 0.108 | 0.0705 | 0.102 | 0.0769 | 0.379 | 0.137 | 0.244 | 0.364 | 0.242 | 0.654 | 0.545 | 0.763 | 0.627 | 0.338 | –
19 | LK-2 | 0.247 | – | 0.23 | 0.227 | 0.246 | 0.167 | 0.15 | 0.196 | 0.167 | 0.472 | 0.297 | 0.374 | 0.338 | 0.303 | 0.788 | 0.676 | 0.752 | 0.633 | 0.708 | –
20 | NCI-H1975 | 0.979 | 0.861 | 0.869 | 0.763 | 0.758 | 0.733 | 0.577 | 0.694 | 0.592 | 0.715 | 0.772 | 0.609 | 0.659 | 0.531 | 0.402 | 0.372 | 0.309 | 0.353 | 0.236 | 0.664
21 | NCI-H2170 | 1.23 | 1.07 | 1.11 | 1.13 | 0.785 | 0.697 | 0.737 | 0.77 | 0.655 | 0.925 | 0.736 | 0.875 | 0.773 | 0.514 | 0.968 | 0.838 | 0.889 | 0.882 | 0.721 | 0.75
22 | NCI-H1651 | 0.895 | 0.864 | 0.869 | 0.808 | 0.79 | 0.749 | 0.665 | 0.617 | 0.685 | 0.484 | 0.394 | 0.474 | 0.464 | 0.425 | 0.841 | 0.798 | 0.743 | 0.803 | 0.714 | 0.603
23 | NCI-H1944 | 1.01 | 0.969 | 0.904 | 0.98 | 0.851 | 0.254 | 0.293 | 0.245 | 0.229 | 0.557 | 0.44 | 0.504 | 0.428 | 0.375 | 0.399 | 0.389 | 0.396 | 0.37 | 0.342 | 0.242
24 | NCI-H1437 | 1.05 | 0.855 | 0.807 | 0.782 | 0.506 | 0.368 | 0.287 | 0.376 | 0.307 | 1.15 | 1.09 | 1.03 | 1.09 | 0.73 | 0.553 | 0.522 | 0.456 | 0.332 | 0.293 | 0.351
25 | EKVX | 1.13 | 0.898 | 0.818 | 0.781 | 0.499 | 0.366 | 0.341 | 0.398 | 0.311 | 0.7 | – | 0.673 | 0.558 | 0.38 | 0.3 | – | 0.247 | 0.251 | 0.244 | 0.396
26 | NCI-H2347 | 0.632 | 0.602 | 0.498 | 0.588 | 0.558 | 0.639 | 0.542 | 0.565 | 0.361 | 0.793 | 0.638 | 0.646 | 0.633 | 0.48 | 0.295 | 0.292 | 0.244 | 0.249 | 0.272 | –
27 | H3255 | 1.03 | 0.688 | 0.672 | 0.689 | 0.451 | 0.702 | 0.522 | 0.591 | 0.309 | 1.07 | 0.8 | 0.831 | 0.798 | 0.506 | 0.606 | 0.588 | 0.539 | 0.48 | 0.412 | 0.613
